Measured values reported in patent publication US11938208B2, “Antimicrobial mixture” (SYMRISE AG, priority 2019, dated 2024).

Legend:
E.coli (ATCC #8739) = test: Preservative efficacy test (challenge test) in an anionic emulsion of pH 5.8; format: cell-based; settings: for LR (log reduction), day 2 / LR (log reduction), day 7 / LR (log reduction), day 14 / LR (log reduction), day 21 / LR (log reduction), day 28: log 10 reduction vs initial inoculum; for surviving microorganisms (total aerobic plate count), day 2: day 2 after inoculation; for surviving microorganisms (total aerobic plate count), day 2 / surviving microorganisms (total aerobic plate count), day 7 / surviving microorganisms (total aerobic plate count), day 14 / surviving microorganisms (total aerobic plate count), day 21 / surviving microorganisms (total aerobic plate count), day 28: storage 22.5±2.5° C., TNTC = too numerous to count; for surviving microorganisms (total aerobic plate count), day 7: day 7 after inoculation; for surviving microorganisms (total aerobic plate count), day 14: day 14 after inoculation; for surviving microorganisms (total aerobic plate count), day 21: day 21 after inoculation; for surviving microorganisms (total aerobic plate count), day 28: day 28 after inoculation
Description: This test is a reference method that is used to evaluate the preservative efficacy of a test formulation (in the present case an anionic emulsion of pH 5.8 comprising various fatty esters and fatty alcohols as oil bodies and glyceryl stearate citrate as the emulsifier. The formula was inoculated with known populations of microorganisms (0.2 ml of calibrated inoculums into 20 g of the test formulation) and the number of surviving microorganisms was calculated at defined intervals during a 28-day period. The inoculated test products were stored at 22.5±2.5° C. for the 28-day duration. The surviving microorganisms were enumerated via the total aerobic plate count method. For each time point, the log 10 reductions were calculated and were compared to the passing criteria.

mold = settings: moist alfalfa hay; cited from earlier work
[1] = administered intraperitoneally; cited from earlier work
[2] = constituents of Tagetes mendocina; cited from earlier work

Row | Structure (SMILES) | LR (log reduction), day 2 (E.coli (ATCC #8739)) | surviving microorganisms (total aerobic plate count), day 2 (E.coli (ATCC #8739)) | LR (log reduction), day 7 (E.coli (ATCC #8739)) | surviving microorganisms (total aerobic plate count), day 7 (E.coli (ATCC #8739)) | LR (log reduction), day 14 (E.coli (ATCC #8739)) | surviving microorganisms (total aerobic plate count), day 14 (E.coli (ATCC #8739)) | LR (log reduction), day 21 (E.coli (ATCC #8739)) | surviving microorganisms (total aerobic plate count), day 21 (E.coli (ATCC #8739)) | LR (log reduction), day 28 (E.coli (ATCC #8739)) | surviving microorganisms (total aerobic plate count), day 28 (E.coli (ATCC #8739)) | LR (log reduction), day 14 (E.coli (ATCC #8739); listed as 0.35% SymSave H) | LR (log reduction), day 21 (E.coli (ATCC #8739); listed as 0.35% SymSave H) | surviving microorganisms (total aerobic plate count), day 21 (E.coli (ATCC #8739); listed as 0.35% SymSave H) | LR (log reduction), day 28 (E.coli (ATCC #8739); listed as 0.35% SymSave H) | surviving microorganisms (total aerobic plate count), day 28 (E.coli (ATCC #8739); listed as 0.35% SymSave H) | prevention of mold growth (mold) | reduction of subcutaneous inflammation [1] | antioxidant activity [2]
1 | CC(C)=CCC[C@](C)(O)[C@@H]1CC=C(C)CC1 [0.6% D100, Bisabolol] | LR 0 | TNTC | LR 0 | TNTC | LR 0 | TNTC | LR 0 | TNTC | LR 0 | TNTC |  |  |  |  |  |  |  | 
2 | CC(=O)c1ccc(O)cc1 [0.25% SymSave H, 4-hydroxyacetophenone] | LR 0 | TNTC | LR 0 | TNTC | LR 0 | TNTC | LR 3.94 | 6.4 × 10^2 | LR 5.35 | 2.5 × 10^1 | LR 2.49 | LR 6 | <10 | LR 6 | <10 | not prevent mold growth | reducing subcuteaneous inflammation | one of the active constituents
